Experimental data published in PMC6315173, “Characterization of the Apelin/Elabela Receptors (APLNR) in Chickens, Turtles, and Zebrafish: Identification of a Novel Apelin-Specific Receptor in Teleosts” (Frontiers in Endocrinology, 2018).
Where two headings read alike, the source gives them in different places. Positions of bridges follow the written chain, without caps; N, C: chain ends. Residues, ends and D or L forms follow the SMILES beside them. No end group written: not given here.

How the values were obtained:
[1] = target: T1, zebrafish APLNR2a (zfAPLNR2a) (Danio rerio, UniProt Q7SZP9); experiment: pGL3-CRE-luciferase reporter assay, HEK293 cells expressing zebrafish APLNR2a; format: cell-based
T1 construct: the open reading frame (ORF) of each APLNR was amplified from the animal; expressed in transfected cells; host or cells: HEK293
T1 sequence (Q7SZP9 1-362): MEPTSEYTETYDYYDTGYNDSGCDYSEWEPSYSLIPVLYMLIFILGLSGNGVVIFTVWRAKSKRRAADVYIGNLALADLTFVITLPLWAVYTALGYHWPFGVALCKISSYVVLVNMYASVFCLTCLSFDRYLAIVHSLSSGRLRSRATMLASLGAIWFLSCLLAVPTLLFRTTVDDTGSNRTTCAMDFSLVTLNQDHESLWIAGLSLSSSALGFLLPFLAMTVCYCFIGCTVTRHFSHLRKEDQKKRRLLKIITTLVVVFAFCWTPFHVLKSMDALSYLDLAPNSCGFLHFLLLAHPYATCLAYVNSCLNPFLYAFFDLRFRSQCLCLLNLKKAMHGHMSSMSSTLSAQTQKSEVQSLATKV
Method: (§1) In brief, HEK293 cells were cultured on a six-well plate and grown for 24 h before transfection. The cells were then transfected with a mixture containing 700 ng pGL3-CRE-Luciferase reporter construct (or pGL4-SRE-Luciferase reporter construct), 200 ng of receptor expression plasmid [or empty pcDNA3.1(+) vector as a negative control], and 2 μl jetPRIME (Polyplus Transfection, Illkirch, France) in 200 μl buffer. Twenty-four hour later, HEK293 cells were sub-cultured into a 96-well plate at 37°C for an additional 24 h before treatment. After removal of medium from the 96-well plate, the cells were treated with 100 μl peptide-containing medium (or peptide-free medium) for 6 h in the presence or absence of forskolin (5 μM). Finally, HEK293 cells were lysed with 1 × passive lysis buffer for luciferase assay (Promega, Madison, WI, USA) and the luciferase activity of the cell lysate was measured by a Multimode microplate Reader (TriStar LB 941, EG&G Berthold, Germany) according to the manufacturer's instruction.
(§2) The luciferase activity in each treatment group was expressed as the relative fold changes as compared with their respective control groups. The data were analyzed by non-linear regression followed by one-way ANOVA using GraphPad Prism 5 (GraphPad, San Diego, CA, USA). To validate the results, all experiments were repeated at least twice.

[2] = target: T2, zebrafish APLNR2b (zfAPLNR2b) (Danio rerio, UniProt A0T2N3); experiment: pGL3-CRE-luciferase reporter assay, HEK293 cells expressing zebrafish APLNR2b; format: cell-based
T2 construct: the open reading frame (ORF) of each APLNR was amplified from the animal; expressed in transfected cells; host or cells: HEK293
T2 sequence (A0T2N3 1-359): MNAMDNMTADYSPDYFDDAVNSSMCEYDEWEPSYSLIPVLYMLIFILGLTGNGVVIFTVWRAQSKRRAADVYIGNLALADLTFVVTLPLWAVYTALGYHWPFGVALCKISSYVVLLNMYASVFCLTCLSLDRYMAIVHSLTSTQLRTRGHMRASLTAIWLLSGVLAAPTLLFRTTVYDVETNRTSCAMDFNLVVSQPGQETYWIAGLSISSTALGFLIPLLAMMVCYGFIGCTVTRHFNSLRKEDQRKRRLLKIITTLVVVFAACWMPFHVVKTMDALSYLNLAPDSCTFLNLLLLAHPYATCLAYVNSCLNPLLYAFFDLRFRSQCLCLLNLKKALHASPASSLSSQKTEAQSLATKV
Method: as §1, §2

human APLNR (hAPLNR1) = target: T3, human APLNR (hAPLNR1) (Homo sapiens, UniProt P35414); experiment: pGL3-CRE-luciferase reporter assay, HEK293 cells expressing human APLNR; format: cell-based; settings: SEM; read-out: EC50 (nM) hAPLNR
T3 construct: human APLNR ORF was also amplified by PCR and cloned into pcDNA3.1 (+) expression vector; expressed in transfected cells; host or cells: HEK293
T3 sequence (P35414 1-380): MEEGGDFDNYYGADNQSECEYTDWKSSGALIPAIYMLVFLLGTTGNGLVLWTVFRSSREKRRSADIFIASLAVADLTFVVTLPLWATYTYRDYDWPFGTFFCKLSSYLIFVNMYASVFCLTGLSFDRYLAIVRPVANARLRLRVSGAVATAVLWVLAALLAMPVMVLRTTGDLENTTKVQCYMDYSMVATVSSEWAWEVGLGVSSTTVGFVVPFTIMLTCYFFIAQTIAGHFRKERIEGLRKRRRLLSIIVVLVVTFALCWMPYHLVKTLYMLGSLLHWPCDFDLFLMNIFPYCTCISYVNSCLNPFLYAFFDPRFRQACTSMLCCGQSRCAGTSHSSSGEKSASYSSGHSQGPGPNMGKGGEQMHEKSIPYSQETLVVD
Method: In brief, HEK293 cells were cultured on a six-well plate and grown for 24 h before transfection. The cells were then transfected with a mixture containing 700 ng pGL3-CRE-Luciferase reporter construct (or pGL4-SRE-Luciferase reporter construct), 200 ng of receptor expression plasmid [or empty pcDNA3.1(+) vector as a negative control], and 2 μl jetPRIME (Polyplus Transfection, Illkirch, France) in 200 μl buffer. Twenty-four hour later, HEK293 cells were sub-cultured into a 96-well plate at 37°C for an additional 24 h before treatment. After removal of medium from the 96-well plate, the cells were treated with 100 μl peptide-containing medium (or peptide-free medium) for 6 h in the presence or absence of forskolin (5 μM). […] The luciferase activity in each treatment group was expressed as the relative fold changes as compared with their respective control groups. The data were analyzed by non-linear regression followed by one-way ANOVA using GraphPad Prism 5 (GraphPad, San Diego, CA, USA). To validate the results, all experiments were repeated at least twice.

[3] = tested on: zebrafish APLNR3a (zfAPLNR3a); experiment: pGL3-CRE-luciferase reporter assay, HEK293 cells expressing zebrafish APLNR3a; format: cell-based, zebrafish (Danio rerio); settings: HEK293 cells transiently expressing zfAPLNR3a, inhibition of forskolin (5 μM)-stimulated pGL3-CRE-luciferase activity, 6 h, mean ± S.E. of 3 independent experiments, N = EC50 cannot be evaluated
Method: as §1, §2

[4] = tested on: tilapia APLNR3b (tiAPLNR3b); experiment: pGL3-CRE-luciferase reporter assay, HEK293 cells expressing tilapia APLNR3b; format: cell-based, Nile tilapia (Oreochromis niloticus); settings: HEK293 cells transiently expressing tiAPLNR3b, inhibition of forskolin (5 μM)-stimulated pGL3-CRE-luciferase activity, 6 h, mean ± S.E. of 3 independent experiments, N = EC50 cannot be evaluated
Method: as §1, §2

zebrafish APLNR3a = experiment: Western blot of ERK1/2 phosphorylation, HEK293 cells expressing zebrafish APLNR3a; format: cell-based, zebrafish (Danio rerio)
Method: (§3) HEK293 cells cultured in a 60-mm culture dish (Nunc, Rochester, NY, USA) with 70% confluence were transfected by 1 μg of receptor expression plasmid using jetPRIME reagent according to manufacturers' instruction (Polyplus Transfection, Illkirch, France). After the 24-h transfection, HEK293 cells were sub-cultured into a 24-well plate, serum-deprived for 12 h and then treated by peptides for 10 min. These cells were washed with cold PBS and lysed by RIPA Lysis Buffer (Roche, Basel, Switzerland) on ice. Western blot was used to examine ERK1/2 phosphorylation and β-actin levels in cell lysates.

zebrafish APLNR2a = target: T4, zebrafish APLNR2a (Danio rerio, UniProt Q7SZP9); experiment: Western blot of ERK1/2 phosphorylation, HEK293 cells expressing zebrafish APLNR2a; format: cell-based; settings: 100 nM, duplicates, time-dependent (5, 10, 20 min)
T4 construct: the open reading frame (ORF) of each APLNR was amplified from the animal; expressed in transfected cells; host or cells: HEK293
T4 sequence (Q7SZP9 1-362): T1 sequence (Q7SZP9 1-362)
Method: as §3, with “After the 24-h transfection, HEK293 cells were sub-cultured into a 24-well plate, serum-deprived for 12 h and then treated by peptides for 10 min.” left out

Compound	EC50 ([1]; SEM)	EC50 ([2]; SEM)	EC50 (human APLNR (hAPLNR1))	further results
LVRPRGARRGNVRRPGGWRRLRRPRPRLSHKGPMPF [cApelin-36]	2.96 ± 1.26 nM	0.9 ± 0.33 nM	0.16 ± 0.06 nM	–
CSCC[C@H](NC(=O)[C@@H]1CCCN1C(=O)CNC(=O)[C@H](CCCCN)NC(=O)[C@H](Cc1c[nH]cn1)NC(=O)[C@H](CO)NC(=O)[C@H](CC(C)C)NC(=O)[C@H](CCCNC(=N)N)NC(=O)[C@@H]1CCCN1C(=O)[C@H](CCCNC(=N)N)NC(=O)[C@@H]1CCCN1)C(=O)N1CCC[C@H]1C(=O)N[C@@H](Cc1ccccc1)C(=O)O [cApelin-13]	2.82 ± 1.18 nM	12.7 ± 5.21 nM	0.55 ± 0.21 nM	–
CC(C)C[C@H](NC(=O)[C@@H]1CCCN1C(=O)[C@H](CC(C)C)NC(=O)[C@H](CS)NC(=O)[C@H](CCCNC(=N)N)NC(=O)[C@H](CCCCN)NC(=O)[C@H](CCCCN)NC(=O)[C@@H]1CCCN1C(=O)[C@H](CS)NC(=O)[C@H](CC(N)=O)NC(=O)[C@H](Cc1c[nH]cn1)NC(=O)[C@H](CCCNC(=N)N)NC(=O)[C@H](CCCNC(=N)N)NC(=O)[C@H](Cc1ccc(O)cc1)NC(=O)[C@@H](N)CCCCN)C(=O)N[C@@H](Cc1c[nH]cn1)C(=O)N[C@@H](CO)C(=O)N[C@@H](CCCNC(=N)N)C(=O)N[C@H](C(=O)N1CCC[C@H]1C(=O)N[C@@H](Cc1ccccc1)C(=O)N1CCC[C@H]1C(=O)O)C(C)C [zfELA-22] (H-KYRRHNCPKKRCLPLHSRVPFP-OH; N-terminus and C-terminus assumed)	1.43 ± 0.57 nM	1.78 ± 1.17 nM	–	EC50 [3]: > 100 nM; EC50 [4]: > 100 nM
CSCC[C@H](NC(=O)[C@@H]1CSSC[C@H](NC(=O)[C@H](CC(N)=O)NC(=O)[C@H](Cc2c[nH]cn2)NC(=O)[C@H](CCCNC(=N)N)NC(=O)[C@H](Cc2c[nH]cn2)NC(=O)[C@H](CC(C)C)NC(=O)[C@H](CCCCN)NC(=O)[C@H](CCCNC(=N)N)NC(=O)[C@H](CCCNC(=N)N)NC(=O)[C@H](CC(C)C)NC(=O)[C@H](C)NC(=O)[C@H](CC(C)C)NC(=O)[C@H](CC(N)=O)NC(=O)[C@H](C)NC(=O)[C@@H]2CCCN2C(=O)[C@H](CCCNC(=N)N)NC(=O)[C@@H](N)CCC(N)=O)C(=O)N[C@@H](CO)C(=O)N[C@@H](Cc2c[nH]cn2)C(=O)N[C@@H](CCCNC(=N)N)C(=O)N[C@@H](CCCNC(=N)N)C(=O)N1)C(=O)N1CCC[C@H]1C(=O)N[C@@H](CC(C)C)C(=O)N[C@@H](Cc1c[nH]cn1)C(=O)N[C@@H](CO)C(=O)N[C@@H](CCCNC(=N)N)C(=O)N[C@H](C(=O)N1CCC[C@H]1C(=O)N[C@@H](Cc1ccccc1)C(=O)N1CCC[C@H]1C(=O)O)C(C)C [cELA-32a] (H-QRPANLALRRKLHRHNCSHRRCMPLHSRVPFP-OH; disulfide 17-22)	1.81 ± 0.74 nM	2.55 ± 0.11 nM	0.26 ± 0.07 nM	–
TPLRQNPARAGRSQRPAGWRRRRPRPRLSHKGPMPF [zfApelin-36]	0.89 ± 0.44 nM	0.51 ± 0.31 nM	–	ERK1/2 phosphorylation, Western blot (zebrafish APLNR3a): can induce ERK1/2 phosphorylation; EC50 ([3]; SEM): 0.45 ± 0.12 nM; phosphorylation of ERK1/2, Western blot (zebrafish APLNR2a): can enhance phosphorylation of ERK1/2; EC50 ([4]; SEM): 0.77 ± 0.24 nM
CSCC[C@H](NC(=O)[C@H](CS)NC(=O)[C@H](CCCNC(=N)N)NC(=O)[C@H](CCCNC(=N)N)NC(=O)[C@H](Cc1c[nH]cn1)NC(=O)[C@H](CO)NC(=O)[C@H](CS)NC(=O)[C@H](CC(N)=O)NC(=O)[C@H](Cc1c[nH]cn1)NC(=O)[C@H](CCCNC(=N)N)NC(=O)[C@H](Cc1c[nH]cn1)NC(=O)[C@H](CC(C)C)NC(=O)[C@H](CCCCN)NC(=O)[C@H](CCCNC(=N)N)NC(=O)[C@H](CCCNC(=N)N)NC(=O)[C@H](CC(C)C)NC(=O)[C@H](C)NC(=O)[C@H](CC(C)C)NC(=O)[C@H](CC(N)=O)NC(=O)[C@H](C)NC(=O)[C@@H]1CCCN1C(=O)[C@H](CCCNC(=N)N)NC(=O)[C@@H](N)CCC(N)=O)C(=O)N1CCC[C@H]1C(=O)N[C@@H](CC(C)C)C(=O)N[C@@H](Cc1c[nH]cn1)C(=O)N[C@@H](CO)C(=O)N[C@@H](CCCNC(=N)N)C(=O)N[C@H](C(=O)N1CCC[C@H]1C(=O)N[C@@H](Cc1ccccc1)C(=O)N1CCC[C@H]1C(=O)O)C(C)C [cELA-32b] (H-QRPANLALRRKLHRHNCSHRRCMPLHSRVPFP-OH)	1.68 ± 0.58 nM	1.02 ± 0.23 nM	0.28 ± 0.05 nM	–
CSCC[C@H](NC(=O)[C@@H](N)CS)C(=O)N1CCC[C@H]1C(=O)N[C@@H](CC(C)C)C(=O)N[C@@H](Cc1cnc[nH]1)C(=O)N[C@@H](CO)C(=O)N[C@@H](CCCNC(=N)N)C(=O)N[C@H](C(=O)N1CCC[C@H]1C(=O)N[C@@H](Cc1ccccc1)C(=O)N1CCC[C@H]1C(=O)O)C(C)C [cELA-11]	–	–	–	EC50 [1]: > 100 nM; EC50 [2]: > 100 nM
